The record followed here is patent US8183394B2, “Protease inhibitor precursor synthesis” (priority 2005, dated 2012).

What all share (assay type): cell-based
The test system of test [1] is HIV mutant strain Mutant 4. The experiment in a line: cellular assay using MT4-LTR-EGFP cells for anti-viral activity, mutant 4. The following applies: Human immunodeficiency virus 1, 72 h, read-out: pEC50 Mutant 4 (converted). On the procedure: (§1) The compounds were tested in a cellular assay using the MT4-LTR-EGFP cells for anti-viral activity.
(§2) The cellular assay was performed according to the following procedure. HIV- or mock-infected MT4-LTR-EGFP cells were incubated for three days in the presence of various concentrations of the compounds mentioned above. Upon infection, the viral tat protein activates the GFP reporter. At the end of the incubation period, the GFP signal was measured. In the virus control samples (in the absence of any inhibitor) the maximal fluorescent signal was obtained. The inhibitory activity of the compound was monitored on the virus-infected cells and EC50 values were calculated. These values represent the amount of the compound required to protect 50% of the cells from virus infection. The data presented in table 1 contain the pEC50 values, being the negative logarithm of the EC50-values.

In test [2] the test system is HIV mutant strain Mutant 1. The experiment in a line: cellular assay using MT4-LTR-EGFP cells for anti-viral activity, mutant 1. The following applies: Human immunodeficiency virus 1, 72 h, read-out: pEC50 Mutant 1 (converted). On the procedure: as §1, §2
Test [3] relates to HIV mutant strain Mutant 2. The test can be described thus: cellular assay using MT4-LTR-EGFP cells for anti-viral activity, mutant 2. Conditions: Human immunodeficiency virus 1, 72 h, read-out: pEC50 Mutant 2 (converted). The procedure:
as §1, §2

Test [4] has as its system wild type laboratory HIV strain (WT IIIB-2-001). The experiment in a line: microbe, parasite or virus in culture. Conditions: Human immunodeficiency virus 1, 72 h, MT4-LTR-EGFP cells, three days incubation, GFP signal. The procedure: as §1
as §2, with “In the virus control samples (in the absence of any inhibitor) the maximal fluorescent signal was obtained.” left out

The test system of test [5] is HIV mutant strain Mutant 3. The test can be described thus: cellular assay using MT4-LTR-EGFP cells for anti-viral activity, mutant 3. Conditions: Human immunodeficiency virus 1, 72 h, read-out: pEC50 Mutant 3 (converted). On the procedure:
as §1, §2

As for `CC(C)CN(C[C@@H](O)[C@H](Cc1ccccc1)NC(=O)O[C@H]1CO[C@H]2OCC[C@H]21)S(=O)(=O)c1ccc(N)cc1` [TMC 114, (3R,3aS,6aR)-hexahydrofuro[2,3-b]furan-3-yl N-[(1S,2R)-1-benzyl-2-hydroxy-3-(N1-isobutylsulfanilamido)propyl]carbamate, reference compound], the results for the EC50 in test [1], in test [2] and in test [3] were 3720 nM, 8.13 nM and 794 nM, respectively.

With `CC(C)CN(C[C@@H](O)[C@H](Cc1ccccc1)NC(=O)O[C@H]1CO[C@H]2OC[C@H](OCc3ccccc3)[C@H]21)S(=O)(=O)c1ccc(N)cc1` [Compound 13, {3-[(4-amino-benzenesulfonyl)-isobutyl-amino]-1-benzyl-2-hydroxy-propyl}-carbamic acid 4-benzyloxy-hexahydro-furo[2,3-b]furan-3-yl ester], the EC50 in test [4] is 1.58 nM; in test [1], 2000 nM; in test [5] it was 126 nM; in test [2] it was 10 nM; in test [3], 316 nM.
